Source: patent publication US12075784B2, “Mixtures containing secondary calcium and magnesium phosphonate and their use as fungicide or fertilizer” ([…] (haftungsbeschränkt), priority 2016, dated 2024)

What was measured:
[1] = test system: Rhizopus stolonifer; experiment: B.4 Protective action against Rhizopus stolonifer on rye bread (Pumpernickel); conditions: Pumpernickel slices; mixtures 1:50 diluted with water, sorbic acid 0.1% solution; after one week of incubation
Experimental: B.4 Protective Action Against Rhizopus stolonifer on Rye Bread (“Pumpernickel”)
Sterile slices of Pumpernickel were each sprayed with water (control), a 0.1% sorbic acid solution (a standard preservative) or the mixture of example 1 or of example 8 (1:50 diluted with water). For inoculation with the fungus, small disks of blotting paper were soaked with a spore suspension of Rhizopus stolonifer and placed onto the center of Pumpernickel slices. After one week of incubation, the degree of fungus formation was examined.

[2] = test system: powdery mildew; conditions: dogwood plants; untreated control 30%; from U.S. Pat. Nos. 5,736,164 and 5,800,837; cited from earlier work
[3] = test system: Plasmopara viticola; experiment: B.5.1 Protective and curative treatment against Plasmopara viticola in grapevines (half-leaf); type: in vivo; conditions: example 12 diluted 1:100, examples 13/14 1:200, 0.05% Silwet L-77, ca. 2 μl/cm2, 6 days after first inoculation
Experimental: (§1) Potted grapevines were inoculated with Plasmopara viticola both before foliar treatment with the active agent and after washing the active agent coating off the leaves in order to test the effect of the residual depot of actives. To ensure a good comparability of the results and avoid or at least strongly minimize falsification of the effects, e.g. due to the use of leaves of different physiological age or of different expositions, a half-leaf treatment was carried out: In each case only one half of a leaf was treated, while the other half remained untreated and served as a control and reference for determining efficacy; the two halves being separated by the middle leaf vein. […]
6 days after the first inoculation the plants were placed for 12 h into a humid chamber and then the extent of infection was determined visually and the efficacy W was calculated from the infected leave surface according to the above Abbot's formula.
The expected efficacies for active compound combinations (i.e. secondary magnesium and calcium phosphonate) were determined using Colby's formula (Colby, S. R., “Calculating synergistic and antagonistic responses of herbicide combinations”, Weeds, 15, pp. 20-22, 1967) and compared to the observed efficacies. […]

[4] = test system: Sphaerotheca fuliginea and Erysiphe cichoracearum; experiment: B.7 Protective treatment against Sphaerotheca fuliginea and Erysiphe cichoracearum in cucumber; type: in vivo; conditions: Cucumis sativus half-leaf treatment, example 12 diluted 1:100, examples 13/14 1:200, inoculated after 24 h, 18 days after treatment
Experimental: as §1, with “vein. For this purpose a precision sprayer was used for applying the active compounds on the one leaf half, while the half which was to stay untreated was covered with a blotting paper during spraying.” for “vein.”
In a greenhouse, leaves of Cucumis sativus plants var. […] 18 days after the treatment with the active compounds the extent of infection (formation of conidia) was determined visually and the efficacy W was calculated from the infected leave surface according to Abbot's formula. The expected efficacies for active compound combinations (i.e. secondary magnesium and calcium phosphonate) were determined using Colby's formula.

[5] = test system: Plasmopara viticola; experiment: B.5.2 Curative treatment against Plasmopara viticola in grapevines; type: in vivo; conditions: without second inoculation, half-leaf, example 12 diluted 1:100, examples 13/14 1:200, 5 days after inoculation
Experimental: as §1, with “vein. For this purpose a precision sprayer was used for applying the active compounds on the one leaf half, while the half which was to stay untreated was covered with a blotting paper during spraying.” for “vein.”
(§2) The experiment was carried out in analogy to B.5.1, however without the second inoculation. 5 days after the inoculation the plants were placed for 12 h into a humid chamber and then the extent of infection was determined visually and the efficacy W was calculated from the infected leave surface according to Abbot's formula. The expected efficacies for active compound combinations (i.e. secondary magnesium and calcium phosphonate) were determined using Colby's formula.

[6] = test system: Plasmopara viticola; experiment: B.5.3 Protective treatment against Plasmopara viticola in grapevines; type: in vivo; conditions: without first inoculation, washed after 24 h, example 12 diluted 1:100, examples 13/14 1:200, 5 days after inoculation
Experimental: as §1, with “vein. For this purpose a precision sprayer was used for applying the active compounds on the one leaf half, while the half which was to stay untreated was covered with a blotting paper during spraying.” for “vein.”
as §2, with “the first” for “the second”

[7] = test system: Erysiphe graminis; experiment: B.6 Protective treatment against Erysiphe graminis in wheat; type: in vivo; conditions: wheat cultivar Kanzler sprayed to runoff, example 12 diluted 1:100, examples 13/14 1:200, inoculated after 24 h, 18 days after treatment
Experimental: For a treatment according to the invention, the reaction mixture obtained in example 12 was diluted with water in 1:100 v/v ratio, then 0.05% Silwet® L-77 was added. For comparison, the reaction mixtures obtained in examples 13 and 14, respectively, were diluted with water in 1:200 v/v ratio, then 0.05% Silwet® L-77 was added.
B.6 Protective Treatment Against Erysiphe graminis in Wheat
In a greenhouse, wheat plants of the cultivar Kanzler with 2-3 fully developed leaves were sprayed to runoff-point with either a suspension of the product of example 13 containing secondary magnesium phosphonate, or of the product of example 14 containing secondary calcium phosphonate, or of the product of example 12 containing secondary calcium and magnesium phosphonate; in each case diluted and supplemented with a wetting agent as defined in example B.5.1. After 24 h the plants were inoculated with conidia of Erysiphe graminis. 18 days after the treatment with the active compounds the extent of infection (formation of conidia) was determined visually and the efficacy W was calculated from the infected leave surface according to Abbot's formula. The expected efficacies for active compound combinations (i.e. secondary magnesium and calcium phosphonate) were determined using Colby's formula.

## C/C=C/C=C/C(=O)O [Sorbic acid, sorbic acid]
[1]
  Infected surface area: 40%

## potassium phosphonate
[2]
  leaves infected with powdery mildew: 100%

## secondary calcium phosphonate [Example 14]
[3]
  Observed efficacy: 24.6%
[4]
  Observed efficacy: 20.0%
[5]
  Observed efficacy: 18.3%
[6]
  Observed efficacy: 35.1%
[7]
  Observed efficacy: 11.7%

## secondary magnesium phosphonate [Example 13]
[3]
  Observed efficacy: 16.5%
[4]
  Observed efficacy: 43.3%
[5]
  Observed efficacy: 47.3%
[6]
  Observed efficacy: 44.5%
[7]
  Observed efficacy: 36.7%
